Data set [1] in a line: Cell cytotoxicity assay (MTS), CC90 as reported in Table 1, cell line not stated. It is filed as cell-based. The note with it: human; cell line not given. In short, it runs like this: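 MTS read-out (490 nm, 2 h dye step) after 8-day exposure at 37° C. Huh7, HepG2, BxPC3 were seeded at 2×10^3 and CEM at 5×10^3 cells/well, with compound serially diluted from 100 μM. CC90 comes from comparison with untreated control wells.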

For data set [2], the system named is HCV Replicon 1b. In words: HCV inhibition assay, HCV replicon 1b (Clone A or ET-lunet cells; RT-PCR or luciferase reporter). The note with it: Hepatitis C virus, 96 h, HCV replicon 1b; 4 days incubation; read-out: Replicon 1b potency EC90. It is filed as cell-based. In short, it runs like this: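 Inhibition read either as luciferase signal (ET replicon) or as HCV 5′-NTR RNA by RT-PCR relative to rRNA, % = (1−2^−ΔΔCt)×100, against DMSO controls, giving EC50 and EC90. Cells: Clone A or ET-lunet, seeded 1500 or 3000/well, exposed 4 days at 37 °C, 5% CO2, 0.5% DMSO.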
Background: A replicon is a self-replicating genome or part of one, used to study replication in cells.

As usually defined, the EC90 is the concentration needed for an effect of 90%.

On to `CC(C)C[C@H]1C(=O)N[C@@H](CC2CC2)CN1C(=O)[C@@H]1C[C@H]1c1ccc(Cl)cc1` [Compound 243, (3S,6S)-4-[(1R,2R)-2-(4-Chloro-phenyl)-cyclopropanecarbonyl]-6-cyclopropylmethyl-3-isobutyl-piperazin-2-one], for which the CC90 at 8 days in data set [1] was greater than 10000 nM. The EC90 in data set [2] worked out at 430 nM.

In the case of `CCC[C@H]1CN(C(=O)[C@@H]2C[C@H]2c2ccc(Cl)cc2)[C@@H](CC(C)C)C(=O)N1` [Compound 244, (3S,6S)-4-[(1R,2R)-2-(4-Chloro-phenyl)-cyclopropanecarbonyl]-3-isobutyl-6-propyl-piperazin-2-one], the CC90 at 8 days in data set [1] is greater than 10000 nM. Moreover, the EC90 in data set [2] worked out at 70 nM.

As for `CC(C)C[C@H]1C(=O)N[C@@H](C2CCCCC2)CN1C(=O)[C@@H]1C[C@H]1c1ccc(Cl)cc1` [Compound 245, (3S,6S)-4-[(1R,2R)-2-(4-Chloro-phenyl)-cyclopropanecarbonyl]-6-cyclohexyl-3-isobutyl-piperazin-2-one], the CC90 at 8 days in data set [1] is greater than 10000 nM. Besides, in data set [2], the EC90 came out at 620 nM.

Take `CC(C)C[C@H]1C(=O)N[C@@H](C2CCCC2)CN1C(=O)[C@@H]1C[C@H]1c1ccc(Cl)cc1` [Compound 246, (3S,6S)-4-[(1R,2R)-2-(4-Chloro-phenyl)-cyclopropanecarbonyl]-6-cyclopentyl-3-isobutyl-piperazin-2-one]: in data set [1], the CC90 at 8 days was greater than 10000 nM. Further, in data set [2], the EC90 is 200 nM.

With `CC(C)C[C@H]1C(=O)N[C@@H](c2ccccc2)CN1C(=O)[C@@H]1C[C@H]1c1ccc(F)cc1` [Compound 247, (3S,6S)-4-[(1R,2R)-2-(4-Fluoro-phenyl)-cyclopropanecarbonyl]-3-isobutyl-6-phenyl-piperazin-2-one], the CC90 at 8 days in data set [1] is greater than 10000 nM. For the same compound, the EC90 in data set [2] was 50 nM.

With `CC(C)C[C@H]1C(=O)N[C@@H](c2ccccc2)CN1C(=O)[C@@H]1C[C@H]1c1ccc(Cl)cc1` [Compound 248, (3S,6S)-4-[(1R,2R)-2-(4-Chloro-phenyl)-cyclopropanecarbonyl]-3-isobutyl-6-phenyl-piperazin-2-one], the CC90 at 8 days in data set [1] is greater than 10000 nM. The EC90 in data set [2] is 160 nM.

`CC(C)C[C@H]1CN(C(=O)[C@@H]2C[C@H]2c2ccc(C(C)(C)C)cc2)[C@@H](CC(C)C)C(=O)N1` [Compound 249, (3S,6S)-4-[(1R,2R)-2-(4-tert-Butyl-phenyl)-cyclopropanecarbonyl]-3,6-diisobutyl-piperazin-2-one]: the CC90 at 8 days in data set [1] is greater than 10000 nM. Also, the EC90 in data set [2] was determined as 750 nM.

Take `CC(C)C[C@H]1CN(C(=O)[C@@H]2C[C@H]2c2ccc(Cl)cc2F)[C@@H](CC(C)C)C(=O)N1` [Compound 250, (3S,6S)-4-[(1R,2R)-2-(4-Chloro-2-fluoro-phenyl)-cyclopropanecarbonyl]-3,6-diisobutyl-piperazin-2-one]: the CC90 at 8 days in data set [1] is greater than 10000 nM. In addition, the EC90 in data set [2] is 360 nM.

In the case of `CCC[C@H]1CN(C(=O)[C@@H]2C[C@H]2c2ccc(Cl)cc2F)[C@@H](CC(C)C)C(=O)N1` [Compound 251], the CC90 at 8 days in data set [1] was greater than 10000 nM. Moreover, the EC90 in data set [2] is 200 nM.

`CC(C)C[C@H]1C(=O)N[C@@H](C2CCCCC2)CN1C(=O)[C@@H]1C[C@H]1c1ccc(Cl)cc1F` [Compound 252] yielded a CC90 at 8 days in data set [1] greater than 10000 nM. For the same compound, the EC90 in data set [2] stood at 670 nM.

As for `CC(C)C[C@H]1C(=O)N[C@@H](C2CCCC2)CN1C(=O)[C@@H]1C[C@H]1c1ccc(Cl)cc1F` [Compound 253, (3S,6S)-4-[(1R,2R)-2-(4-Chloro-2-fluoro-phenyl)-cyclopropanecarbonyl]-6-cyclopentyl-3-isobutyl-piperazin-2-one], in data set [1], the CC90 at 8 days was greater than 10000 nM. Further, the EC90 in data set [2] was 500 nM.

For `CC(C)C[C@H]1C(=O)N[C@@H](C(C)C)CN1C(=O)[C@@H]1C[C@H]1c1ccc(Cl)cc1F` [Compound 254, (3S,6S)-4-[(1R,2R)-2-(4-Chloro-2-fluoro-phenyl)-cyclopropanecarbonyl]-3-isobutyl-6-isopropyl-piperazin-2-one], the CC90 at 8 days in data set [1] was greater than 10000 nM. The EC90 in data set [2] amounted to 660 nM.

The record behind these values is patent US20120202794A1 (priority 2011, published 2012).
